Experimental data from ChEMBL document CHEMBL2040759, “Design, synthesis and anticancer activity of nitric oxide donating/chalcone hybrids” (2012).

Tested on: UACC-62
Test: Growth inhibition of human UACC62 cells assessed as cell growth at 10^-5 M after 48 hrs by SRB assay
Format: functional
Conditions: UACC-62, 48 h, read-out: Activity

C/C(=N\O)c1ccc(OCC(=O)Nc2ccc(C(=O)/C=C/c3ccc(Cl)cc3)cc2)cc1
growth at 10 µM: 37.5%
